From patent US11306087B2, “Inhibitors of KRAS G12C and methods of using the same” (Amgen Inc., priority 2017, dated 2022)

Legend:
[1] = target: GDP-bound KRAS protein (aa 1-169), containing both G12C and C118A amino acid substitutions (Homo sapiens (Human), UniProt P01116, C118A/G12C); experiment: Coupled Nucleotide Exchange Assay; assay type: biochemical; conditions: 5 min compound pre-incubation; inhibition of SOS-mediated nucleotide exchange; AlphaScreen
Experimental: For compounds in Table 2, the following assay conditions were employed: Coupled Nucleotide Exchange Assay: Purified GDP-bound KRAS protein (aa 1-169), containing both G12C and C118A amino acid substitutions and an N-terminal His-tag, was pre-incubated with a compound dose-response titration for 5 min in assay buffer (25 mM HEPES pH 7.4, 10 mM MgCl2, and 0.01% Triton X-100). Following compound pre-incubation, purified SOS protein (aa 564-1049) and GTP (Roche 10106399001) were added to the assay wells and incubated for an additional 30 min. To determine the extent of inhibition of SOS-mediated nucleotide exchange, purified GST-tagged cRAF (aa 1-149), nickel chelate AlphaLISA acceptor beads (PerkinElmer AL108R), and AlphaScreen glutathione donor beads (PerkinElmer 6765302) were added to the assay wells and incubated for 5 minutes. The assay plates were then read on a PerkinElmer EnVision Multilabel Reader, using AlphaScreen® technology, and data were analyzed using a 4-parameter logistic model to calculate IC50 values.

[2] = system: Phosphorylation of ERK1/2 in MIA PaCa-2 cells; experiment: Phospho-ERK1/2 MSD Assay; assay type: cell-based; conditions: Homo sapiens, 2 hours compound treatment, 10 ng/mL EGF for 10 min, read-out: p-ERK IC50 (MIA PaCa-2)
Experimental: Phospho-ERK1/2 MSD Assay: MIA PaCa-2 (ATCC® CRL-1420™) and A549 (ATCC® CCL-185™) cells were cultured in RPMI 1640 Medium (ThermoFisher Scientific 11875093) containing 10% fetal bovine serum (ThermoFisher Scientific 16000044) and 1× penicillin-streptomycin-glutamine (ThermoFisher Scientific 10378016). Sixteen hours prior to compound treatment, MIA PaCa-2 or A549 cells were seeded in 96-well cell culture plates at a density of 25,000 cells/well and incubated at 37° C., 5% CO2. A compound dose-response titration was diluted in growth media, added to appropriate wells of a cell culture plate, and then incubated at 37° C., 5% CO2 for 2 hours. Following compound treatment, cells were stimulated with 10 ng/mL EGF (Roche 11376454001) for 10 min, washed with ice-cold Dulbecco's phosphate-buffered saline, no Ca^2+ or Mg^2+ (ThermoFisher Scientific 14190144), and then lysed in RIPA buffer (50 mM Tris-HCl pH 7.5, 1% Igepal, 0.5% sodium deoxycholate, 150 mM NaCl, and 0.5% sodium dodecyl sulfate) containing protease inhibitors (Roche 4693132001) and phosphatase inhibitors (Roche 4906837001). Phosphorylation of ERK1/2 in compound-treated lysates was assayed using Phospho-ERK1/2 Whole Cell Lysate kits (Meso Scale Discovery K151DWD) according to the manufacturer's protocol. Assay plates were read on a Meso Scale Discovery Sector Imager 6000, and data were analyzed using a 4-parameter logistic model to calculate IC50 values.

GDP-bound KRAS protein (aa 1-169), containing both G12C and C118A amino acid substitutions, sequence (P01116 other isoform, or with tags, fused parts or gaps G12C/C118A): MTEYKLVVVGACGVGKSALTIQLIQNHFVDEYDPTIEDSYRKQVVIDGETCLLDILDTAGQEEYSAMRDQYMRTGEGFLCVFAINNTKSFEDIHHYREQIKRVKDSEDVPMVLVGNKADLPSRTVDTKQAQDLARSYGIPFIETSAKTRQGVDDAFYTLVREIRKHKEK

## C=CC(=O)N1[C@H](C)CN(c2nc(=O)n(-c3c(C)ccnc3C(C)C)c3nc(-c4c(O)cccc4F)c(Cl)cc23)C[C@@H]1C (atropisomer, axis not shown; (M)) [Example 14, (M)-4-(4-Acryloyl-cis-3,5-dimethylpiperazin-1-yl)-6-chloro-7-(2-fluoro-6-hydroxyphenyl)-1-(2-isopropyl-4-methylpyridin-3-yl)pyrido[2,3-d]pyrimidin-2(1H)-one]
[1]
  IC50: 16 nM
[2]
  IC50: 35 nM

## C=CC(=O)N1C[C@H](C)N(c2nc(=O)n(-c3c(C(C)C)ncnc3C(C)C)c3nc(-c4c(O)cccc4F)c(Cl)cc23)C[C@H]1C [Example 8, 4-((2S,5R)-4-Acryloyl-2,5-dimethylpiperazin-1-yl)-6-chloro-1-(4,6-diisopropylpyrimidin-5-yl)-7-(2-fluoro-6-hydroxyphenyl)pyrido[2,3-d]pyrimidin-2(1H)-one]
[1]
  IC50: 30 nM
[2]
  IC50: 15 nM

## C=CC(=O)N1[C@H](C)CN(c2nc(=O)n(-c3c(C(C)C)ncnc3C(C)C)c3nc(-c4c(N)cccc4F)c(Cl)cc23)C[C@@H]1C [Example 21, 4-(4-Acryloyl-cis-3,5-dimethylpiperazin-1-yl)-7-(2-amino-6-fluorophenyl)-6-chloro-1-(4,6-diisopropylpyrimidin-5-yl)pyrido[2,3-d]pyrimidin-2(1H)-one]
[1]
  IC50: 92 nM
[2]
  IC50: 36 nM

## C=CC(=O)N1C[C@H](C)N(c2nc(=O)n(-c3c(C)ccnc3C(C)C)c3nc(-c4c(O)cccc4F)c(Cl)cc23)C[C@H]1C [Example 2, 4-((2S,5R,M)-4-Acryloyl-2,5-dimethylpiperazin-1-yl)-6-chloro-7-(2-fluoro-6-hydroxyphenyl)-1-(2-isopropyl-4-methylpyridin-3-yl)pyrido[2,3-d]pyrimidin-2(1H)-one]
[1]
  IC50: 27 nM
[2]
  IC50: 16 nM

## C=CC(=O)N1C[C@H](C)N(c2nc(=O)n(-c3c(C)ccnc3C(C)C)c3nc(-c4c(O)cccc4F)c(F)cc23)C[C@H]1C [Example 5, 4-((2S,5R,M)-4-Acryloyl-2,5-dimethylpiperazin-1-yl)-6-fluoro-7-(2-fluoro-6-hydroxyphenyl)-1-(2-isopropyl-4-methylpyridin-3-yl)pyrido[2,3-d]pyrimidin-2(1H)-one]
[1]
  IC50: 79 nM
[2]
  IC50: 46 nM

## C=CC(=O)N1C[C@H](C)N(c2nc(=O)n(-c3c(C)ccnc3C(C)C)c3nc(-c4c(N)cccc4F)c(F)cc23)C[C@H]1C [Example 6, 4-((2S,5R,M)-4-Acryloyl-2,5-dimethylpiperazin-1-yl)-7-(2-amino-6-fluorophenyl)-6-fluoro-1-(2-isopropyl-4-methylpyridin-3-yl)pyrido[2,3-d]pyrimidin-2(1H)-one]
[1]
  IC50: 38 nM
[2]
  IC50: 26 nM
